From patent US12599597B2, “Substituted N-benzhydrylacetamide inhibitors of jumanji domain histone demethylases for the treatment of cancer” (University of Kentucky Research Foundation, priority 2020, dated 2026) come the findings set out here.

The subject of assay [1] is CRC organoids from Apc^f/+/Kras^LSL-G12D/Villin-Cre mice. The assay is described as follows: Mouse CRC organoids formation. The assay is classed as cell-based. The settings on record: 3 μM; p<0.01. The procedure: FIGS. 11A-B show an image and a graph illustrating mouse CRC organoids. (A) CRC organoids from Apc^f/+/Kras^LsL-G12D/Villin-Cre mice. (B) CBA-1 (3 μM) inhibited CRC organoids (*p<0.01; n=3).
CRC organoids models. To analyze the effects of CBA-1 in CRC, a colon cancer organoid model was established from Apc^f/+/Kras^LSL-G12D/Villin-Cre mice (FIG. 11A).

Another assay addresses JMJD3 (KDM6B) (Homo sapiens, UniProt O15054). The assay is described as follows: Histone demethylase assay, purified enzyme panel. Type of assay: biochemical. The settings on record: 58B1, 10 μM. An excerpt: (§1) Histone Demethylase Assay
(§2) To further examine the effects of 58B1 on histone demethylase, we screened a panel of purified histone demethylases was screened.

The target in a further assay is Jarid1B (KDM5B) (Homo sapiens, UniProt Q9UGL1). The assay is described as follows: Histone demethylase assay, purified enzyme panel. The note with it: 58B1, 10 μM. Type of assay: biochemical.
Sequence of Jarid1B (KDM5B) (Q9UGL1 whole entry): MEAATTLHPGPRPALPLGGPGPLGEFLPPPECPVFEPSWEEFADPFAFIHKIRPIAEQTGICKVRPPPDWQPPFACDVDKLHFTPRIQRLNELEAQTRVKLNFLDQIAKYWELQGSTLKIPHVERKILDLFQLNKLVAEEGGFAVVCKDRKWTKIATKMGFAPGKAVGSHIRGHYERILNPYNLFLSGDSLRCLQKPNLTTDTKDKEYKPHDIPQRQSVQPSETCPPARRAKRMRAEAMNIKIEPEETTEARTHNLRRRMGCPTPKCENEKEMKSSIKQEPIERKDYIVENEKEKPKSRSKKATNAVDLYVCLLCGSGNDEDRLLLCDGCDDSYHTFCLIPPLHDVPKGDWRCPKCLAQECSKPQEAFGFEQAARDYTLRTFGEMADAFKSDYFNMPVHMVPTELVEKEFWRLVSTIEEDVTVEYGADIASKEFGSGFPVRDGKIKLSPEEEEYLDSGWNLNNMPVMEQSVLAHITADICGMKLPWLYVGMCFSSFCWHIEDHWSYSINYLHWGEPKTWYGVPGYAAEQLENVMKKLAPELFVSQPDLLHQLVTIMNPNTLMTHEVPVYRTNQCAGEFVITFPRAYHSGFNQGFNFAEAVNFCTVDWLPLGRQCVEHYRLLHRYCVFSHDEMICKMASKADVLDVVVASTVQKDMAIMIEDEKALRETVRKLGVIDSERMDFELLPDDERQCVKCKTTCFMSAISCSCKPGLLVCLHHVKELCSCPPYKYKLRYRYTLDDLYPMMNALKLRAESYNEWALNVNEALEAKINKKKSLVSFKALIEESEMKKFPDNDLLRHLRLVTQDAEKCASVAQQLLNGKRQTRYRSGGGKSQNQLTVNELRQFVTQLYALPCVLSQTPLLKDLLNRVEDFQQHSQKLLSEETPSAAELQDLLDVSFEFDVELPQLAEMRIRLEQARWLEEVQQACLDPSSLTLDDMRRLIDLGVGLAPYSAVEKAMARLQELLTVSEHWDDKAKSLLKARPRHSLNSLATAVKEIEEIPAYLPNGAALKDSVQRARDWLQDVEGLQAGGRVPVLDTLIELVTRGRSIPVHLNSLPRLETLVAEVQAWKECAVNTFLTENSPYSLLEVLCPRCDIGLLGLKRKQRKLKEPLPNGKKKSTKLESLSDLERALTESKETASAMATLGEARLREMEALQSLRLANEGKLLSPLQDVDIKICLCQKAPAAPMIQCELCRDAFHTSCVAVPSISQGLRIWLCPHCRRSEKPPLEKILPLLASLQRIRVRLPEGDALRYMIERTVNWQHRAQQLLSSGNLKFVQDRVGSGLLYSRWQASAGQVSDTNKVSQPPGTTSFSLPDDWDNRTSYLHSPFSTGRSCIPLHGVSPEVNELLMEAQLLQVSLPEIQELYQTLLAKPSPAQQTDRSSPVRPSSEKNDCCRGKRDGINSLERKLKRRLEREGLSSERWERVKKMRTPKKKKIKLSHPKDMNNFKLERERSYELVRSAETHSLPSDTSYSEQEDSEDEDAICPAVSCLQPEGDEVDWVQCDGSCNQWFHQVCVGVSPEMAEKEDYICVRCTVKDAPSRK
Description: as §1, §2

In a further assay the target is T1, JMJD2A (KDM4A) (Homo sapiens, UniProt O75164).
T1 sequence (O75164 1-1064): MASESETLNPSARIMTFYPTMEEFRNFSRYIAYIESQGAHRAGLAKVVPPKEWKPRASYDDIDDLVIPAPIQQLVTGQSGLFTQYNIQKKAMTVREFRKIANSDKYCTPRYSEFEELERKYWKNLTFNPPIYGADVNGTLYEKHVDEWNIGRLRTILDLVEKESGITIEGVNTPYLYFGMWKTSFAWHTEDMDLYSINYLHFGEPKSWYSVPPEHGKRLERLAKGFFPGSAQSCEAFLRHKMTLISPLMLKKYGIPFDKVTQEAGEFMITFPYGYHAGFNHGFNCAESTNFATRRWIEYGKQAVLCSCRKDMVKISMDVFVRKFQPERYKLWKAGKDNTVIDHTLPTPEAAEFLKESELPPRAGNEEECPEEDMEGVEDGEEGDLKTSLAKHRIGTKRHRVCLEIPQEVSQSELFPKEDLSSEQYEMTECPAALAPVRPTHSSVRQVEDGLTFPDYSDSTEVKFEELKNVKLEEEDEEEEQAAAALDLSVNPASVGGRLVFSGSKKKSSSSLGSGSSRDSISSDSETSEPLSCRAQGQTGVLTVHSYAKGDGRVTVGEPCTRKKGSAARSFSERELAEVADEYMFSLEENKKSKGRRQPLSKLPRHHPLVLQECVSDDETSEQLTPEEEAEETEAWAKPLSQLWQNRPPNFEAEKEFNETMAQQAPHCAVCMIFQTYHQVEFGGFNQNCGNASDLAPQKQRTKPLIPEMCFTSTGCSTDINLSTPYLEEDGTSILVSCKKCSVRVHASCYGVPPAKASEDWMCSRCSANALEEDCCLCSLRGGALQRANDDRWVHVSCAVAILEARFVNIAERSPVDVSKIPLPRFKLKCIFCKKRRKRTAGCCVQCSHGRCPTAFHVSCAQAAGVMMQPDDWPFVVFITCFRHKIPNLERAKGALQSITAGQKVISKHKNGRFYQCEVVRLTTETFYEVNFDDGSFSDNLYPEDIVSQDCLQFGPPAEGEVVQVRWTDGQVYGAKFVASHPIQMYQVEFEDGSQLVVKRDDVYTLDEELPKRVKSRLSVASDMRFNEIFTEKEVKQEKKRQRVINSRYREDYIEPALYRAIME
The assay is described as follows: Histone demethylase assay, purified enzyme panel. The assay is classed as biochemical. The note with it: 58B1, 10 μM.
Description: as §1, §2

The next assay concerns the target LSD1 (KDM1A) (Homo sapiens, UniProt O60341). Description: Histone demethylase assay, purified enzyme panel. The assay is classed as biochemical. The note with it: 58B1, 10 μM.
Description: as §1, §2

The target of a further assay is KDM3B (Homo sapiens, UniProt Q7LBC6). The assay is described as follows: KDM3B enzymatic activity. The assay is classed as biochemical. The settings on record: at 10 μM. The text has this: Other KDM3 members as CBA-1 targets. Inhibition of KDM3A by CBA-1 increased H3K9Me^2 and inhibited Wnt signaling; however, other KDM3 members may also regulate H3K9 methylation. For example, both KDM3B and KDM3C (JMJD1C) regulated Wnt signaling. Given the high similarity of their structures (FIG. 10A), particularly the JmjC domains, it is believed that CBA-1 would inhibit KDM3B and KDM3C as well. […] CBA-1 coordinated with Mn^2+ at a longer distance in KDM3B (3.9 Å) than the distance in KDM3A (2.8 Å) (FIGS. 8B and 10B). This could be one of the reasons that CBA-1 inhibited KDM3A better than KDM3B.
Sequence of KDM3B (Q7LBC6 whole entry, the tested form may be a part): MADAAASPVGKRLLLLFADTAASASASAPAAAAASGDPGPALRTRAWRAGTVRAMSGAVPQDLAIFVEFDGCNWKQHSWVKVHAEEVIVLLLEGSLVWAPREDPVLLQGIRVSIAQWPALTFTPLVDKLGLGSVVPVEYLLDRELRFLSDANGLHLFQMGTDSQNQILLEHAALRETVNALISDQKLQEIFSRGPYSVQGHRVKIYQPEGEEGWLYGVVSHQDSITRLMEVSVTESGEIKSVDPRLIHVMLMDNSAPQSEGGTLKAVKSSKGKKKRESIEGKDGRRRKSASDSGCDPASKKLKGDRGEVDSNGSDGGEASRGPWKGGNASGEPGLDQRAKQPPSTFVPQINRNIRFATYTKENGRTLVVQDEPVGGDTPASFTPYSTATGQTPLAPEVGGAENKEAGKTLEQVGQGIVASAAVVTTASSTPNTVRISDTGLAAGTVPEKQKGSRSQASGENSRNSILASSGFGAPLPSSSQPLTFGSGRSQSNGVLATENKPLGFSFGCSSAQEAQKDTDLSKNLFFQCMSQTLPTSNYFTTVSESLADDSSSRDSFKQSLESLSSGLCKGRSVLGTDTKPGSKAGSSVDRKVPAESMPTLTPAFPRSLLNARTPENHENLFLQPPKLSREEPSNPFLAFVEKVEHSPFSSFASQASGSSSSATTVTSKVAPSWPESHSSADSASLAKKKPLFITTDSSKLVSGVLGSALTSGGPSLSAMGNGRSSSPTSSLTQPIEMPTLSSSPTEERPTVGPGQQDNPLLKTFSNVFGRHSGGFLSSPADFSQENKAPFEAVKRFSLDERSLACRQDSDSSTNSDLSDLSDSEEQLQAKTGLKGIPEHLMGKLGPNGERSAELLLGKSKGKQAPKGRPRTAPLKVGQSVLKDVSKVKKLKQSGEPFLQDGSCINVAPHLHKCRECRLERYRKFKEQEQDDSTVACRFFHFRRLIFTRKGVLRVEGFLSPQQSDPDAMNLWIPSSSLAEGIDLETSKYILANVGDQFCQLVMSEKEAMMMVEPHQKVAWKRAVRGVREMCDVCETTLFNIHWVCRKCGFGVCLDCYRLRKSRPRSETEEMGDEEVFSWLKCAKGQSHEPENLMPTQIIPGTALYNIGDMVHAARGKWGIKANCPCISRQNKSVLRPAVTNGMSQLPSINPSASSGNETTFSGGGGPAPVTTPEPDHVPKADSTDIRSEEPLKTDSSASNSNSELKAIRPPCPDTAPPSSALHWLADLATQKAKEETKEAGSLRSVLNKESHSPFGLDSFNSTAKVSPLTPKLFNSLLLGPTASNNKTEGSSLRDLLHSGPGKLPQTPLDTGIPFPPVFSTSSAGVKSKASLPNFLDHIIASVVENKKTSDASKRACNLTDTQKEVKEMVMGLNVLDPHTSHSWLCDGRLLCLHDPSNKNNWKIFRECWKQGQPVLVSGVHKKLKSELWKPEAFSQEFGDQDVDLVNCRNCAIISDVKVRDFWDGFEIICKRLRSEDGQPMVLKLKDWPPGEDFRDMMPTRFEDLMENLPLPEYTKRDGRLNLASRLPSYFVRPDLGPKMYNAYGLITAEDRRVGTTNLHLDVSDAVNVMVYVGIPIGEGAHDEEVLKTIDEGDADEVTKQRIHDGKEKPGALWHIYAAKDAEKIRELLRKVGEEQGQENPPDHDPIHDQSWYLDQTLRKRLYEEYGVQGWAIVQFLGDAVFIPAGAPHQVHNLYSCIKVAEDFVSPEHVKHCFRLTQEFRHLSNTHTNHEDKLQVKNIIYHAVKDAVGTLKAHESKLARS
Repurposing drugs as CBA-1 analogs and KDM3 inhibitors. CBA-1 is a specific and potent KDM3A inhibitor. As backup candidates, two approved drugs were identified as CBA-1 analogs and KDM3A inhibitors. Based on the docking study (FIGS. 8A-B), the N and OH groups (red color in FIG. 12A) are critical in binding the Mn^2+ in KDM3A. […] A virtual screening was performed and several antibiotics that have similar structures were identified. Two of these antibiotics, clioquinol and nitroxoline (FIG. 12B), indeed inhibited the enzymatic activities of KDM3 (FIGS. 12C and D). These two drugs were tested in LS174T tumor xenograft model in SCID mice. […] Nitroxoline has been used in Europe for over 50 years as an antibiotic. It has anticancer effects, but the mechanism remains unclear.

In assay [2] the test system is histone methylation in HEK293T cells. The assay is described as follows: Histone methylation in HEK293T cells. The assay is classed as cell-based. The settings on record: 5 μM. As to the method: To determine if 58B1 regulates Wnt signaling through epigenetic mechanism, the effects of 58B1 on histone methylation were analyzed. […] Similar results were found in LS174T colon cancer cells. H3K9 and H3K27 methylations are negative regulators of transcription. Without wishing to be bound by theory, it is believed that 58B1 inhibited Wnt signaling by increasing H3K9 or H3K27 methylation on Wnt target gene promotors.

The next assay concerns LS174T. Description: Colon cancer cell proliferation. The assay is classed as cell-based. The procedure:
FIGS. 5A-B show an image and graph illustrating validation of CBA-1. (A) CBA-1 repressed Wnt targets in LS174T CRC cells. (B) CBA-1 inhibited CRC cell proliferation (5d, Vi-Cell viability assay).
The effects of these compounds on proliferation of colon cancer cell line LS174T and DLD1 were analyzed.
Identification of a CBA-1 as a novel Wnt inhibitor. The present inventors routinely use TOPFlash reporter assay for Wnt inhibitor screening. To mimic the constitutively active Wnt signaling found in CRC cells, Wnt signaling was activated by inhibiting GSK3 and stabilizing β-catenin. From screening in house small-molecule libraries, CBA-1 (FIG. 4) was identified that inhibited Wnt signaling in TOPFlash reporter assay. To validate the screening results, CBA-1 was tested in CRC cells.

Sequence of JMJD3 (KDM6B) (O15054 whole entry): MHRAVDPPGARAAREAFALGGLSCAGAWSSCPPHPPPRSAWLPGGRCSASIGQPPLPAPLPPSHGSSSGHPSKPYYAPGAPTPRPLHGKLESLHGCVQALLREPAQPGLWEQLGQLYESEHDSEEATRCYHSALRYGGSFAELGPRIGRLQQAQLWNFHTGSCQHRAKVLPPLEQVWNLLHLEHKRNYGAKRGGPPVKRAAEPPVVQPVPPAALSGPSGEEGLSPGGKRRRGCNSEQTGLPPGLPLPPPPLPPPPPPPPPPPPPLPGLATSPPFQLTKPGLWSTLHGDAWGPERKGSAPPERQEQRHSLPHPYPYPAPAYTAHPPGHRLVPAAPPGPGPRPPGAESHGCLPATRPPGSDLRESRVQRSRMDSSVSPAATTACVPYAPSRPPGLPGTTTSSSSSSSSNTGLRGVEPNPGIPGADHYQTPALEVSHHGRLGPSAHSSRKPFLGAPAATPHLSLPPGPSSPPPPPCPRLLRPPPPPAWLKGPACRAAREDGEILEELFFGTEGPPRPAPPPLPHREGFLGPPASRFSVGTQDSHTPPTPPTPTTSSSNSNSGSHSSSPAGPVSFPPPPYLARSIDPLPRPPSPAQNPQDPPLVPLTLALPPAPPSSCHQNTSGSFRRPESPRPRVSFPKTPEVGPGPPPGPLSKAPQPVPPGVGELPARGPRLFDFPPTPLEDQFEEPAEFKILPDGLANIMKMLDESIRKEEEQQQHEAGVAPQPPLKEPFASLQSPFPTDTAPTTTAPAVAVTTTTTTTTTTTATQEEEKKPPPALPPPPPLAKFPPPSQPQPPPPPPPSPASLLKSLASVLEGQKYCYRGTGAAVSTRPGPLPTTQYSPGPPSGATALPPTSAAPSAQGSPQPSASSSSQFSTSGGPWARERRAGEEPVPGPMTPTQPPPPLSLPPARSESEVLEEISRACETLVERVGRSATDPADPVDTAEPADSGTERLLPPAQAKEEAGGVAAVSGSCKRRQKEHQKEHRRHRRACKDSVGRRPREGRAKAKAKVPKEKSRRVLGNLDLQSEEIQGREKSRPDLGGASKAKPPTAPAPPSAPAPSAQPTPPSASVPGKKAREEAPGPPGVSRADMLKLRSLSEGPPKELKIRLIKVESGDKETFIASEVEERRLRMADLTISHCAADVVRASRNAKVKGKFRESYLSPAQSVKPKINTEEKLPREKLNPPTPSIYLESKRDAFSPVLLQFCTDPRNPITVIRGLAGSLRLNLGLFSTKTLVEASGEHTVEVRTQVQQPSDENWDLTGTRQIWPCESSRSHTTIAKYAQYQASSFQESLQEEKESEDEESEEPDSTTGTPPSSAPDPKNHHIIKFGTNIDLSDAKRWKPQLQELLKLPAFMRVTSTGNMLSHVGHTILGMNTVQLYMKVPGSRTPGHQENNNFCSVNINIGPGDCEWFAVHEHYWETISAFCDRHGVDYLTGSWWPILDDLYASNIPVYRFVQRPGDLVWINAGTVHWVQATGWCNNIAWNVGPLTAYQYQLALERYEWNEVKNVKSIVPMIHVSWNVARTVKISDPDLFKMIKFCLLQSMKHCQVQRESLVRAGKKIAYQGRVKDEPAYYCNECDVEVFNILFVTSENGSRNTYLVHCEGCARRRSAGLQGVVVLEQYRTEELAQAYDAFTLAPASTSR

One may read the inhibition as the change of the read-out against control, counted positive when it falls. Turning to `CCCC(=O)NC(c1ccc(N(CC)CC)cc1)c1cc(Cl)c2cccnc2c1O` (stereo not drawn) [58B1], the “mouse CRC organoids formation” value in assay [1] is given as “significantly inhibited”. On JMJD3 (KDM6B), this molecule gave an inhibition at 10 µM of 94%. On Jarid1B (KDM5B), this molecule showed an inhibition at 10 µM of 95%. This molecule gave an inhibition at 10 µM on JMJD2A (KDM4A) of 64%. Also, 10 µM produced 32% inhibition against LSD1 (KDM1A). Further, the KDM3B inhibition result at KDM3B is “weakly inhibits”. In addition, in assay [2], the “H3K4me^2” value is on record as “not”, the “H3K9Me^3” value was “induced”, the “H3K9 dimethylation (H3K9Me^2)” value is on record as “strongly induced” and the “H3K27Me^3” value was “induced”. The “proliferation of CRC cell lines” value in the assay with LS174T (LS174T (β-catenin mutation), 5d, Vi-Cell viability assay) was “inhibited proliferation”. The “proliferation of colon cancer cell line” value with LS174T (LS174T, at low nanomolar concentrations) is “strongly inhibited”.
